Data published in patent US6413983B1, “Benzopyranyl heterocycle derivatives, process for preparation thereof, and pharmaceutical compositions containing them” (Dongbu Hannong Chemical Co. Ltd., priority 2000, dated 2002).

How the values were obtained:
[1] = test system: ischemic myocardium damage model of anesthetized rats; test: Cardioprotective activity in ischemic heart models of rats (LAD occlusion/reperfusion, anesthetized rats); assay type: in vivo, rat; conditions: rat, in vivo, iv, 0.3 mg/kg
Method: After trachetomy, the rats were rendered to respire artificially at a rate of 60/min with a stroke volume of 10 ml/kg. Cannulars were inserted into the fermoral vein and the fermoral artery and used for drug administration and blood pressure measurement, respectively.
In the ischemic myocardial injury models, the body temperature has an important influence on the results. To avoid the change in the body temperature, a body temperature measuring probe was inserted into the rectum of each rat and the body temperature was constantly kept at 37° C. with the aid of a homeothermic blanket control unit.
Afterwards, during testing, a continuous measurement was made of the mean arterial blood pressures and heart rates from the rats. For the measurement of the blood pressure, a pressure transducer, such as that manufactured by Grass Ins., MA, U.S.A., identified as Model Statham P23XL, was used.
The heart rate was measured by a tachometer, such as that manufactured by Gould Inc., Ohio, U.S.A., identified as Biotachometer. In addition, all of the changes occurring were continuously recorded through the Gould 2000 chart recorder, manufactured by Gould Inc.
The left coronary artery was occluded according to the Selye H. method as follows. The rats underwent a left thoracotomy operation for partial opening of the chest and the right-side chest was pressurized by the middle finger of the left hand to push the heart out. Immediately after the left anterior descending coronary artery hereinafter referred to as (LAD) was carefully stitched using a suture needle with 5-0 silk ligature, the heart was then repositioned in the thoracic cavity while both ends of the ligature were situated outside. The opposite ligature ends were passed through a PE tube (PE100, 2.5 cm) and allowed to stand loose for 20 min for stabilization. Via the cannula inserted into the femoral vein, vehicles or drugs were administered into the rats which were rendered to stand for 30 min in order to sufficiently elicit the efficacies of the drugs.
Next, the PE tube which had the doubled strands of the ligature passed therethrough was pushed toward the heart and then, set upright by tightly pulling end regions of the ligature with a hemostatic pincette while pressing the coronary artery.
After the reocclusion of the coronary artery in accordance with the above procedure, the rats were administered with 2 ml of a 1% Evans blue through an intravenous route. Subsequently, an excess of pentobarbital was intravenously injected to kill the rats, after which the heat was removed and then, deprived of the right ventricle and both atria. The left ventricle was cut horizontally to the heart apex into 5 or 6 slices which were weighed. From the surface of each slice, images were input with the aid of a Hi-scope into a computer installed with an image analyzing program (Image Pro Plus). From the images input into the computer, the area of the normal blood stream tissue region which appeared blue in a computer monitor and the area which appeared colorless were measured. The percentage of the colorless area to the total area of each slice was calculated and multiplied by the weight of each slice to determine the area at risk (AAR) of each slice. The AAR obtained from each slice was summed for all slices and the total AAR was divided by the total weight of the left ventricle to yield % AAR, as shown in the following mathematical formula 1:
AAR(%)=(summed AAR for all slices)/(total weight of left ventricle)×100 [Mathematical Formula 1]
During this fixation, 2,3,5-triphenyltetrazolium chloride was reduced into formazan dye by the myocardial dehydrogenase and its cofactor NADH, so that the normal regions of the tissue were colored brick-red. In contrast, the infarct zones of the tissue were deficient in the dehydrogenase and its cofactor, so that no reduction occurred on the 2,3,5-triphenyltetrazolium, allowing the color to remain unchanged.

[2] = test system: isolated rat aorta constricted with methoxamine; test: Vasodilation effects on isolated aorta of rats (methoxamine-constricted rings); conditions: isolated rat aorta constricted with methoxamine (3 μM); 50% relaxation
Description: Male Sprague-Dawly rats (350-450 g, obtained from the Experimental Animal Team of the Korea Research Institute of Chemical Technology) were knocked unconscious by hitting the occipital region, sacrificed by cervical dislocation, and underwent thoracotomy. After being quickly removed, the thoracic aorta was deprived of the adipose tissue and cut into aortic rings of 3 mm width. The aorta was lightly rubbed with cotton club soaked in a modified Krebs Henseleit buffer (Physiological Salt Solution, PSS) to remove the inner epithelial layer therefrom.
Thereafter, 3×10^−6 M methoxamine was applied to induce an intensive constriction in the vascular smooth muscle. When the vasoconstriction induced by the methoxamine was reached and maintained to a maximum, test compounds and controls were cumulatively added to the organ baths in concentrations of 1, 3, 10 and 30 μM so as to examine the vasodilation effect.
The change rate of constriction by the addition of the drugs compared to the maximal constriction induced by methoxamine was calculated to plot a concentration-relaxation response curve.

[3] = test system: isolated rat hearts; test: Cardioprotective activity in isolated ischemic heart models of rats (Langendorff, global ischemia/reperfusion); conditions: for EDP (MmHg) / LDVP × HR (%) / TTC: 10 μM; for EDP (MmHg): left ventricular end-diastolic pressure after 30 min reperfusion; for LDVP × HR (%): reperfusion double product as % of pretreatment DP, 30 min global ischemia, 30 min reperfusion; for TTC: time to contracture during global ischemia
Method: Male Sprague-Dawley rats weighing 300-450 g were anesthetized with sodium pentobarbital (100 mg/kg, i.p.). The tail vein was injected with heparin (1,000 U/kg) and then the trachea was intubated. […] A latex balloon filled with solvent (ethanol: water=1:1 (v/v)) and attached to a metal cannula was placed in the left ventricle through pulmonary vein and connected to a Isotec pressure transducer (H.S.E., Germany) for measurement of left ventricular pressure (LVP). […] Then, baseline contractile function, heart rate (HR), and coronary flow (CF) (extracorporeal electromagnetic flow probe, Narco Bio-System, U.S.A.) were measured. Cardiac contractile function was calculated by subtracting LVEDP from LV peak systolic pressure (LVSP), yielding developed pressure (LVDP). Double product (DP), another important parameter for assessing cardiac performance, was calculated by multiplying HR by LVDP. Throughout the experiment, all these parameters were measured, and calculated before and 10 min after pretreatment with each compound and 30 min after the onset of reperfusion with buffer. Data on reperfusion DP were further expressed as the percentage to pretreatment DP.
We then rendered the hearts globally ischemic by completely shutting off the perfusate for 30 min. Severity of ischemia was determined as the time to contracture (TTC, min) during global ischemia in which the first 5 mmHg increase in EDP was observed. Then, the hearts were reperfused and, 30 min later, contractile function (LVDP, DP) and cumulative reperfusion lactate dehydrogenase (LDH) release were measured. LDH was measured as a sensitive index for loss of cell viability with a kit supplied by Boerhinger Mannheim based on the technique of Wroblewski and LaDue [F. Wroblewski and JS.

[4] = test system: rat brain homogenate; test: Inhibitory activity against iron-induced lipid peroxidation (MDA quantification); assay type: biochemical; conditions: 100 μM compound, 400 μM FeCl2, 37° C., 30 min, MDA reduction rate vs control
Method: The rat brain was homogenized in a Krebs buffer (15 mM HEPES, 10 mM glucose, 140 mM NaCl, 3.6 mM KCl, 1.5 mM CaCl2, 1.4 mM KH2PO4, 0.7 mM MgCl2, pH 7.4) and the supernatant separated by centrifugation at 12,000 rpm for 10 min was used for further experiments. FeCl2 was added to a final concentration of 400 μM in the brain homogenate which was then allowed to stand at 37° C. for 30 min for the facilitation of oxidation. Each of the test compounds was added at a concentration of 100 μM and vehicle was used as a control.
Iron facilitates the oxidation of the brain homogenate to produce malondialdehyde (MDA), a lipid peroxidation product. Thus, the lipid peroxidation was determined by MDA quantification. The inhibitory effect of the test compounds against the lipid peroxidation was evaluated by calculating MDA reduction rate of the test compounds compared with that of the control group.
Typically, the MDA quantification is achieved by reacting samples with 2-thiobarbituric acid (TBA) and measuring the absorbance at 530 nm. However, this method is unsuitable to treat samples on a large scale because of a boiling step. Thus, in this experiment, N-methyl-2-phenylindole was used instead of TBA. […] Bioxytech^R LPO-586 Kit was used for MDA quantification.

[5] = test system: cerebral cortical neurons; test: Protective activity for neuronal cells against iron-induced damage (LDH release); assay type: cell-based, rat; conditions: 30 μM compound, 50 uM FeSO4, 24 hours, LDH reduction rate vs control
Method: From the brains of 17-18 day-old rat embryos, cerebral cortical neurons were isolated and then, cultured at 37° C. for 7-9 days in a 5% CO2 incubator. The cortical cell cultures were washed twice with a minimum essential medium (MEM) to reduce the serum concentration to 0.2% and pre-treated for 30 min with 30 μM of each of test compounds. For the experiments, the test compounds were dissolved in DMSO and diluted in a medium. At this time, the final concentration of DMSO was not allowed to exceed 0.2%. For a control group, only vehicle was applied.
After the pre-treatment with test compounds or vehicle, FeSO4 was added to a final concentration of 50 uM, and the cultures were maintained for 24 hours in a CO2 incubator. During incubation, lactate dehydrogenase (LDH) was released into the medium upon neuronal death by the oxidative toxicity of iron. The extent of neuronal damage was assessed by measuring the amount of LDH released into the media. The protective effect of the compounds of interest on neurons was evaluated by calculating the LDH reduction rate of treatment group compared with that of the control group.

| Structure (SMILES) | AAR/LV (%) [1] [%] | IZ/AAR (%) [1] [%] | IC50 [2] [µM] | LDH (U/g) [3] [U/g] | EDP (MmHg) [3] [MmHg] | LDVP × HR (%) [3] [%] | TTC [3] [min] | % Protection [5] [%] | also measured |
| --- | --- | --- | --- | --- | --- | --- | --- | --- | --- |
| CCOC(=O)[C@H]1Cc2cc(OC)ccc2N1[C@@H]1c2cc([N+](=O)[O-])ccc2O[C@@](C)(C(OC)OC)[C@H]1O [Example 36, 1-[(2R, 3S, 4R)-3,4-dihydro-2-dimethoxymethyl-3-hydroxy-2-methyl-6-nitro-2H-1-benzopyran-4-yl]-(2R)-2,3-dihydro-1H-5-methoxyindole-2-carboxylic acid ethyl ester] | 37.5 | 41.4 | > 30 | 18.9 | 23.3 | 53.1 | 24.7 | – | – |
| CCOC(=O)[C@@H]1Cc2ccccc2N1[C@@H]1c2cc(N)ccc2O[C@](C)(C(OC)OC)[C@H]1O [Example 45, 1-[(2S, 3S, 4R)-6-amino-3,4-dihydro-2-dimethoxymethyl-3-hydroxy-2-methyl-2H-1-benzopyran-4-yl]-(2S)-2,3-dihydro-1H-indole-2-carboxylic acid ethyl ester] | – | – | – | – | – | – | – | – | % Inhibition [4]: 81%; % Protection ([5]; listed as EX. 45): 96% |
| CCOC(=O)[C@H]1Cc2cc(OC)ccc2N1[C@H]1c2cc([N+](=O)[O-])ccc2O[C@](C)(C(OC)OC)[C@@H]1O [Example 11, 1-[(2S, 3R, 4S)-3,4-dihydro-2-dimethoxymethyl-3-hydroxy-2-methyl-6-nitro-2H-1-benzopyran-4-yl]-(2R)-2,3-dihydro-1H-5-methoxyindole-2-carboxylic acid ethyl ester] | 38.3 | 42.1 | 16.5 | 13.3 | 14.7 | 66.5 | 22.9 | – | – |
| CCOC(=O)[C@@H]1Cc2ccccc2N1[C@H]1c2cc(N)ccc2O[C@](C)(C(OC)OC)[C@@H]1O [Example 43, 1-[(2S, 3R, 4S)-6-amino-3,4-dihydro-2-dimethoxymethyl-3-hydroxy-2-methyl-2H-1-benzopyran-4-yl]-(2S)-2,3-dihydro-1H-indole-2carboxylic acid ethyl ester] | – | – | – | – | – | – | – | 100 | % Inhibition ([4]; listed as EX. 43): 93%; % Protection ([5]; listed as EX. 43): 101% |
| CCOC(=O)[C@H]1Cc2ccccc2N1[C@@H]1c2cc(N)ccc2O[C@](C)(C(OC)OC)[C@H]1O [Example 44, 1-[(2S, 3S, 4R)-6-amino-3,4-dihydro-2-dimethoxymethyl-3-hydroxy-2-methyl-2H-1-benzopyran-4-yl]-(2R)-2,3-dihydro-1H-indole-2-carboxylic acid ethyl ester] | – | – | – | – | – | – | – | 89 | % Inhibition ([4]; listed as EX. 44): 90% |
| CCOC(=O)[C@H]1Cc2ccccc2N1[C@H]1c2cc(N)ccc2O[C@](C)(C(OC)OC)[C@@H]1O [Example 42, 1-[(2S, 3R, 4S)-6-amino-3,4-dihydro-2-dimethoxymethyl-3-hydroxy-2-methyl-2H-1-benzopyran-4-yl]-(2R)-2,3-dihydro-1H-indole-2-carboxylic acid ethyl ester] | – | – | – | – | – | – | – | 100 | % Inhibition ([4]; listed as EX. 42): 90% |
| CCOC(=O)[C@@H]1Cc2cc(OC)ccc2N1[C@@H]1c2cc([N+](=O)[O-])ccc2O[C@@](C)(C(OC)OC)[C@H]1O [Example 35, 1-[(2R, 3S, 4R)-3,4-dihydro-2-dimethoxymethyl-3-hydroxy-2-methyl-6-nitro-2H-1-benzopyran-4-yl]-(2S)-2,3-dihydro-1H-5-methoxyindole-2-carboxylic acid ethyl ester] | 31.6 | 37.8 | > 30 | 23.2 | 19 | 57.3 | 25.1 | – | – |
| CCOC(=O)[C@@H]1Cc2cc(Cl)ccc2N1[C@H]1c2cc([N+](=O)[O-])ccc2O[C@](C)(C(OC)OC)[C@@H]1O [Example 20, 1-[(2S, 3R, 4S)-3,4-dihydro-2-dimethoxymethyl-3-hydroxy-2-methyl-6-nitro-2H-1-benzopyran-4-yl]-(2S)-2,3-dihydro-1H-5-chloroindole-2-carboxylic acid ethyl ester] | 35.4 | 35.1 | > 30 | – | – | – | – | 69 | – |
